From patent US8536183B2, “3-pyridylcarbonyl-piperazinylsulfonyl derivatives” (Convergence Pharmaceuticals Limited, priority 2008, dated 2013) come the findings set out here.

Counter-ions that a name gives are not always drawn.

The target in the experiment is T1, hCaV2.2 (Homo sapiens, UniProt Q00975).
T1 construct: expressed in transfected cells; plasmids pCIN5-hCaV2.2, pCIH-hCaV β3, pCIP-α2δ1
T1 sequence (Q00975 whole entry): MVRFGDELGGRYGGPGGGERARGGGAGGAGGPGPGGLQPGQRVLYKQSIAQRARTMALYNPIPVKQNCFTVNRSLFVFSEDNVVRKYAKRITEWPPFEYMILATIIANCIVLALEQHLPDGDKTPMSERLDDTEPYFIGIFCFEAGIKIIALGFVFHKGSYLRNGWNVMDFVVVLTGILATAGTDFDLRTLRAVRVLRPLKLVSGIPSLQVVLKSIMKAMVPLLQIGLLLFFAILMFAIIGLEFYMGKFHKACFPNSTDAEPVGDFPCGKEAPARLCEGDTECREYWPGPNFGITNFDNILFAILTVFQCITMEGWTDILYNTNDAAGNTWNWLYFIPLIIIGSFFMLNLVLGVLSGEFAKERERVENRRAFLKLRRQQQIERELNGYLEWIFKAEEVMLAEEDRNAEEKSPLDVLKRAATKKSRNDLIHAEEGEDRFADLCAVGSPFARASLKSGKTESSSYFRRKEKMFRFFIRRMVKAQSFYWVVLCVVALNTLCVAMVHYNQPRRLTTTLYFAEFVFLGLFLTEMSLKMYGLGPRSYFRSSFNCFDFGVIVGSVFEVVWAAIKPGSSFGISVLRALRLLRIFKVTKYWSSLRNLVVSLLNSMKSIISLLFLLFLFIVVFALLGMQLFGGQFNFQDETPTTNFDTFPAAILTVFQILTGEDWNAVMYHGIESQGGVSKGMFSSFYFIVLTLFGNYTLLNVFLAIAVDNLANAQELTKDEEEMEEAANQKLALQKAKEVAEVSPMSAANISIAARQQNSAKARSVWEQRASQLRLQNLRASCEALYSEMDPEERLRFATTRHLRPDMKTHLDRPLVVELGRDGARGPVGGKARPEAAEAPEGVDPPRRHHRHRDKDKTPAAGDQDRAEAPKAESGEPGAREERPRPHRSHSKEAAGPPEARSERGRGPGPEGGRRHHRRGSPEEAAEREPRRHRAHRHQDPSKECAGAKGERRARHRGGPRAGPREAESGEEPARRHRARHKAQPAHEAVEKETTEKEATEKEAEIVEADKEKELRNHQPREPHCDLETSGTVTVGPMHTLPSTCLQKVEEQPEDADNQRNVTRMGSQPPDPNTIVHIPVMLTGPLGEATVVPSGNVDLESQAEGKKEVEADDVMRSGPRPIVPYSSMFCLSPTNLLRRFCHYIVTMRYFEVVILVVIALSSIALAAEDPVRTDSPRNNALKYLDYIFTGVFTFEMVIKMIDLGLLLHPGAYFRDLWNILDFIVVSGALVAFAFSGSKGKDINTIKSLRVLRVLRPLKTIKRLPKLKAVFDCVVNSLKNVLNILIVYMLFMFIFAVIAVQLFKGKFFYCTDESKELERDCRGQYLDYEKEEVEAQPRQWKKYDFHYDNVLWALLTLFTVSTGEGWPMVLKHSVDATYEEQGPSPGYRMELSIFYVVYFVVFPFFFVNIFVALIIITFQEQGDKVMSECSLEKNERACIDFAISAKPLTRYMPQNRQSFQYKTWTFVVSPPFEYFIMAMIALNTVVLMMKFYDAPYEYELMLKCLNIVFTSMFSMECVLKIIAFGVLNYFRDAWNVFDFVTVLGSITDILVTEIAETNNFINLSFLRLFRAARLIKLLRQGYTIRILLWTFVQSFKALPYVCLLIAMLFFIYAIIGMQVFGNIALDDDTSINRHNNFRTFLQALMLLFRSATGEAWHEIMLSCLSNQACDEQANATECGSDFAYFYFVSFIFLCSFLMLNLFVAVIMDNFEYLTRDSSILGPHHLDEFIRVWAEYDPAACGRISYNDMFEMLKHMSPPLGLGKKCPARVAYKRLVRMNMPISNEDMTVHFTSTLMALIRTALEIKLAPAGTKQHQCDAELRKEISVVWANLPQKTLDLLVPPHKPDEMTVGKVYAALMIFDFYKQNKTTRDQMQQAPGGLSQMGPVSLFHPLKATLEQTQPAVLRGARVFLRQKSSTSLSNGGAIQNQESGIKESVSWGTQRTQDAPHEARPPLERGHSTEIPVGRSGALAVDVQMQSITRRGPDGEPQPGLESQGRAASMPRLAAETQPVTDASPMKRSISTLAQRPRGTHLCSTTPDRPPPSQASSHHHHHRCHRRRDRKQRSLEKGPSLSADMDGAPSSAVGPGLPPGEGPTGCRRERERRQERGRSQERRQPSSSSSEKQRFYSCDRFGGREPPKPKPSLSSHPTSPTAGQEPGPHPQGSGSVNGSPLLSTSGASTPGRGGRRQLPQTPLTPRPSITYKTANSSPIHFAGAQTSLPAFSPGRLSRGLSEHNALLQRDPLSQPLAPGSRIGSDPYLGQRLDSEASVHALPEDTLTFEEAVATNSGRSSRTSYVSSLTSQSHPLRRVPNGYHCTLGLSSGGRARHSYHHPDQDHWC
Description: hCaV2.2 assay, IonWorks planar array electrophysiology in stably transfected HEK293 cells. The class given is cell-based. The following applies: current elicited by the 1st depolarising pulse inhibited by 50%; HEK293 cells expressing human CaV2.2 alpha/beta3/alpha2delta1; read-out: mean pIC50 (tonic pIC50) (converted). On the technique in general: Patch clamp records ionic current or voltage across a cell membrane.
In the case of `C[C@H]1CN(C(=O)c2ccc(N3CCOCC3)nc2)CCN1S(=O)(=O)c1ccc(Cl)cc1` [Example 7, 4-[5-({(3S)-4-[(4-Chlorophenyl)sulfonyl]-3-methyl-1-piperazinyl}carbonyl)-2-pyridinyl]morpholine], the IC50 is ≥ 31.6 µM.

On to `Cc1ccc(C(=O)N2CCN(S(=O)(=O)c3ccc(C(F)(F)F)cc3)CC2)cn1` [Example 4, 1-[(6-Methyl-3-pyridinyl)carbonyl]-4-{[4-(trifluoromethyl)phenyl]sulfonyl}piperazine], for which the IC50 was ≥ 31.6 µM.

In the case of `C[C@H]1CN(S(=O)(=O)c2ccc(C(F)(F)F)cc2)CCN1C(=O)c1ccc(C#N)nc1` [Example 13, 5-[((2S)-2-Methyl-4-{[4-(trifluoromethyl)phenyl]sulfonyl}-1-piperazinyl)carbonyl]-2-pyridinecarbonitrile], the IC50 is ≥ 31.6 µM.

Consider `Cc1ccc(C(=O)N2CCN(S(=O)(=O)c3ccc(C#N)cc3C)C[C@H]2C)cn1` [Example 63, 3-methyl-4-({(3R)-3-methyl-4-[(6-methyl-3-pyridinyl)carbonyl]-1-piperazinyl}sulfonyl)benzo-nitrile], for which the IC50 was ≥ 31.6 µM.

On to `Cc1cc(C#N)ccc1S(=O)(=O)N1CCN(C(=O)c2ccc(N(C)C)nc2C)[C@@H](C)C1` [Example 30, 4-[((3S)-4-{[6-(Dimethylamino)-2-methyl-3-pyridinyl]carbonyl}-3-methyl-1-piperazinyl)sulfonyl]-3-methylbenzonitrile hydrochloride], for which the IC50 is ≥ 10 µM.

Take `C[C@H]1CN(S(=O)(=O)c2ccc(C(F)(F)F)cc2)CCN1C(=O)c1cncc(Br)c1` [Example 28, (2S)-1-[(5-Bromo-3-pyridinyl)carbonyl]-2-methyl-4-{[4-(trifluoromethyl)phenyl]sulfonyl}piperazine]: the IC50 is ≥ 10 µM.

Consider `Cc1ccc(C(=O)N2CCN(S(=O)(=O)c3ccc(Cl)cc3)[C@@H](C)C2)cn1` [Example 8, (2S)-1-[(4-Chlorophenyl)sulfonyl]-2-methyl-4-[(6-methyl-3-pyridinyl)carbonyl]piperazine], for which the IC50 is ≥ 31.6 µM.

With `Cc1cc(N2CCOCC2)ncc1C(=O)N1CCN(S(=O)(=O)c2ccc(C(F)(F)F)cc2)C[C@@H]1C` [Example 47, 4-{4-Methyl-5-[((2S)-2-methyl-4-{[4-(trifluoromethyl)phenyl]sulfonyl}-1-piperazinyl)carbonyl]-2-pyridinyl}morpholine hydrochloride], the IC50 is ≥ 10 µM.

On to `C[C@H]1CN(S(=O)(=O)c2ccc(C(F)(F)F)cc2)CCN1C(=O)c1ccc(N2CCC2)nc1` [Example 45, (2S)-1-{[6-(1-Azetidinyl)-3-pyridinyl]carbonyl}-2-methyl-4-{[4-(trifluoromethyl)phenyl]sulfonyl}piperazine hydrochloride], for which the IC50 was ≥ 10 µM.
